Data set [1] relates to G6PC mRNA (c.648G>T). The experiment in a line: Repair of abnormal splicing of G6PC mRNA in 293A cells cotransfected with human G6PC full-length plasmid vector (pcDNA hG6PC (c.648G>T)+Int4), qRT-PCR (SYBR Green). Type of data set: cell-based. To be noted: cotransfection with plasmid vector, oligonucleotide final 20 nM, 24 hours. Here is the method:
293A cells were maintained and cultured in a maintenance medium (DMEM, 10% FBS). In the experiment, cells were seeded on a 6-well plate at a density of 2×10^5 cells/well and on a 12-well plate at a density of 1×10^5 cells/well, and the compound of each example and a plasmid vector were simultaneously introduced on the next day, as will be described later, to be used for evaluation.
The compound of each example and a plasmid vector were cotransfected as follows.
In the case of using a 6-well plate, 250 μL of Opti-MEM Medium (Gibco), 0.50 μL of plasmid vector (1 mg/mL), and 4.0 μL (final: 20 nM) of the compound produced in each example (12.5 μM) as solution A and 250 μL of Opti-MEM Medium (Gibco) and 6.0 μL of Lipofectamine2000 (Invitrogen) as solution B were prepared per well, and solution A and solution B were mixed. […]
A human G6PC full-length plasmid vector (pcDNA hG6PC (c.648G>T)+Int4) and each oligonucleotide (15e_001, 15e_002, and the compound of Example 93 of International Publication No. WO 2004/048570 as a control) were cotransfected and evaluated by qRT-PCR (SYBR Green) for whether abnormal splicing due to G6PC (c.648G>T) was repaired. […]

Data set [2] has as its system ApoB mRNA. The experiment in a line: Inhibition of ApoB mRNA expression in human primary hepatocytes, qRT-PCR (Taqman assay). To be noted: 72 hours, wells with no compounds added taken as 100%. Type of data set: cell-based. Here is the method: FIG. 3 is a graph showing degradation effects of ApoB mRNA in human primary cultured hepatocytes when ApoB-ASO (white column) and an ApoB-ASO conjugate (filled column) are added to the cells. The amounts of ApoB mRNA in the cells are quantitatively evaluated relatively by qRT-PCR (corrected by the amount of actin mRNA). The Y axis represents relative values (%) in the addition groups when the amount of ApoB mRNA in untreated human primary cultured hepatocytes is taken as 100%.
FBS (Gibco) was added to a Modified Lanford Medium (Nissui Pharmaceutical Co., Ltd) to 10%, to prepare an adhesion medium. Frozen human primary hepatocytes (Gibco, Hu8105) were taken out from a liquid nitrogen tank, thawed at 37° C., then immediately poured into CHRM (Invitrogen), and gently mixed, followed by centrifugation (100 g, 10 minutes) at room temperature. The supernatant was removed with an aspirator, and then an adhesion medium heated to 37° C. was added, to prepare a cell suspension. The number of living cells was counted by an automatic counter (Bio-Rad Laboratories, Inc.), and then the cells were seeded on a collagen-coated 24-well plate (the number of living cells seeded: 1.4 to 2.1×10^5 cells/well). After culture in a CO2 incubator for 4 to 5 hours, the cells were confirmed to be adhered with a microscope, and the compound addition experiment described below was performed.
To a Modified Lanford Medium containing 10% FBS, was added the compound of Reference Example 45 with no GalNAc derivatives bound or the compound of Example 208 with a GalNAc derivative bound, to prepare a compound-containing medium with a target concentration (which was 100 nM in ApoB mRNA, expression evaluation (1) and 10 nM and 100 nM in ApoB mRNA expression evaluation (2), as described below). After the medium of human primary hepatocytes in each well cultured in the 24-well plate had been removed by aspiration, the compound-containing medium was added in an amount of 0.5 mL for each, to start incubation 72 hours later, the later-described RNA extraction experiment was performed
Following incubation, the compound-containing medium in each well of human primary hepatocytes was removed by aspiration and the cells were washed with ice-cooled PBS (0.5 mL). A 1/100 amount of 2-Mercaptoethanol was added to the RTL buffer of the RNeasy Mini QIAcube Kit (QIAGEN K.K.) to prepare a cell lysate. The cell lysate was added in an amount of 400 μL per well and collected after incubation at room temperature for 5 minutes. […]
The reverse transcription reaction was performed as follows. […] 20 μL of the reverse transcription reaction product was diluted 5 times with 80 μL of purified water and stored at −30° C. or evaluated by qRT-PCR as follows. […]

For “15e_001: oligonucleotide sequence 15e_001, the sequence of Example 8 (SEQ ID No: 40), tested as oligonucleotide (AAUCCGATGGCGAAG; chemistry not given here) [Example 15e_001]”, the “abnormal splicing of G6PC mRNA due to G6PC (c.648G>T) repaired” value in data set [1] is on record as “normalized”.
In the case of “ApoB-ASO: oligonucleotide of the Example 24 sequence (SEQ ID No: 96) with no GalNAc units bound (AGCATTGGTATTCA; listed as DNA, further chemistry not given here)”, the figures for the “inhibition of ApoB mRNA expression” value in data set [2] (10 nM) and in data set [2] (100 nM) were 4.4% and 41.2%, respectively.
For “X^20-G^e2s-C^e2s-A^s-T^s-T^s-G^s-G^s-T^s-A^s-T^s-T^e2s-C^e2s-A^e2s-H [ApoB-ASO conjugate]” the same measures were 30.3% and 68.6%.

For the origin of these results see patent US20220378920A1, “CONJUGATE OF GalNAc-OLIGONUCLEOTIDE FOR DELIVERY TO LIVER AND MANUFACTURING METHOD THEREOF” (DAIICHI SANKYO COMPANY, LIMITED, priority 2019, published 2022).
